Test results from ChEMBL document CHEMBL1130324, “Exceptionally potent antispermatogenic compounds from 8-halogenation of (4aRS,5SR,9bRS)-hexahydroindeno-[1,2-c]pyridines” (1997).

Assays:
Type in all cases: functional
[1] = tested on: Mus musculus; test: Spermatogenic index (percent change from vehicle control) was calculated in Adult Male Swiss Mice at 7 (umol/kg) dose
[2] = tested on: Mus musculus; test: Spermatogenic index (percent change from vehicle control) was calculated in Adult Male Swiss Mice at 25 (umol/kg) dose
[3] = tested on: Mus musculus; test: Spermatogenic index (percent change from vehicle control) was calculated in Adult Male Swiss Mice at 2 (umol/kg) dose
[4] = tested on: Mus musculus; test: Spermatogenic index (percent change from vehicle control) was calculated in Adult Male Swiss Mice at 0.6 (umol/kg) dose
[5] = tested on: Mus musculus; test: Spermatogenic index (percent change from vehicle control) was calculated in Adult Male Swiss Mice at 6 (umol/kg) dose
[6] = tested on: Mus musculus; test: Spermatogenic index (percent change from vehicle control) was calculated in Adult Male Swiss Mice at 19 (umol/kg) dose
[7] = tested on: Mus musculus; test: Spermatogenic index (percent change from vehicle control) was calculated in Adult Male Swiss Mice at 75 (umol/kg) dose
[8] = tested on: Mus musculus; test: Spermatogenic index (percent change from vehicle control) was calculated in Adult Male Swiss Mice at 8 (umol/kg) dose
[9] = tested on: Mus musculus; test: Spermatogenic index (percent change from vehicle control) was calculated in Adult Male Swiss Mice at 3 (umol/kg) dose
[10] = tested on: Mus musculus; test: Spermatogenic index (percent change from vehicle control) was calculated in Adult Male Swiss Mice at 20 (umol/kg) dose
[11] = tested on: Mus musculus; test: Spermatogenic index (percent change from vehicle control) was calculated in Adult Male Swiss Mice at 62 (umol/kg) dose
[12] = tested on: Mus musculus; test: Spermatogenic index (percent change from vehicle control) was calculated in Adult Male Swiss Mice at 21 (umol/kg) dose
[13] = tested on: Mus musculus; test: Spermatogenic index (percent change from vehicle control) was calculated in Adult Male Swiss Mice at 26 (umol/kg) dose
[14] = tested on: Mus musculus; test: Spermatogenic index (percent change from vehicle control) was calculated in Adult Male Swiss Mice 79 (umol/kg) dose

CCN1CC[C@H]2[C@H](c3ccc(C(=O)O)cc3)c3cc(C)c(Cl)cc3[C@H]2C1
SI [1]: -66%
SI [2]: -72%
SI [3]: -55%

CCN1CC[C@H]2[C@H](c3ccc(C(=O)OC)cc3)c3cc(C)c(I)cc3[C@H]2C1 (stereo in doubt; (l)-2b)
SI [4]: -34%
SI [5]: -71%
SI [3]: -66%
SI [6]: -72%

CCN1CC[C@H]2[C@H](c3ccc(C(=O)OC)cc3)c3cc(C)ccc3[C@H]2C1
SI [7]: -64%
SI [2]: -33%
SI [8]: -2%
SI [9]: 3%

CCN1CC[C@H]2[C@H](c3ccc(C(=O)OC)cc3)c3cc(C)c(I)cc3[C@H]2C1 (stereo in doubt; 2b)
SI [10]: -74%
SI [5]: -69%
SI [3]: -57%

CCN1CC[C@H]2[C@H](c3ccc(C(=O)O)cc3)c3cc(C)c(I)cc3[C@H]2C1
SI [10]: -76%
SI [5]: -66%
SI [3]: -67%

CCN1CC[C@H]2[C@H](c3ccc(C(=O)O)cc3)c3cc(C)c(Br)cc3[C@H]2C1
SI [11]: -72%
SI [5]: -69%
SI [12]: -71%

CCN1CC[C@H]2[C@H](c3ccc(C(=O)O)cc3)c3cc(C)ccc3[C@H]2C1
SI [13]: -24%
SI [14]: -52%
